From PubChem BioAssay (NCI)
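48-hour exposure; five concentrations; linearly interpolated endpoints. TGI marks complete inhibition of growth.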

Key:
Experiment in all cases: NCI tumour cell line growth inhibition, 48 h
[1] = test system: MDA-MB-231 breast
[2] = test system: HL-60(TB) leukemia
[3] = test system: SK-MEL-28 melanoma
[4] = test system: TK-10 renal
[5] = test system: A498 renal
[6] = test system: OVCAR-5 ovarian
[7] = test system: EKVX NSCLC
[8] = test system: A549 NSCLC
[9] = test system: MDA-N
[10] = test system: M14 melanoma
[11] = test system: IGROV1 ovarian
[12] = test system: NCI-H460 lung
[13] = test system: SK-OV-3 ovarian
[14] = test system: SNB-75 CNS
[15] = test system: CCRF-CEM leukemia
[16] = test system: SN12C renal
[17] = test system: SK-MEL-5 melanoma
[18] = test system: MCF7 breast
[19] = test system: MDA-MB-435
[20] = test system: OVCAR-8 ovarian
[21] = test system: 786-0 renal
[22] = test system: HOP-62 NSCLC
[23] = test system: CAKI-1 renal
[24] = test system: NCI-H226 lung
[25] = test system: NCI-H23 lung
[26] = test system: LOX IMVI melanoma
[27] = test system: UACC-257 melanoma
[28] = test system: KM12 colon
[29] = test system: OVCAR-3 ovarian
[30] = test system: RXF 393 renal
[31] = test system: K-562 leukemia
[32] = test system: OVCAR-4 ovarian
[33] = test system: SNB-19 CNS
[34] = test system: SW-620 colon
[35] = test system: HCT-116 colon
[36] = test system: SF-295 CNS
[37] = test system: SK-MEL-2 melanoma
[38] = test system: BT-549 breast
[39] = test system: DU-145 prostate
[40] = test system: COLO 205 colon
[41] = test system: HT29 colon
[42] = test system: NCI/ADR-RES ovarian
[43] = test system: ACHN renal
[44] = test system: HCT-15 colon
[45] = test system: UO-31 renal
[46] = test system: SF-539 CNS
[47] = test system: PC-3 prostate
[48] = test system: U251 CNS
[49] = test system: HOP-92 NSCLC
[50] = test system: MOLT-4 leukemia

Measured: TGI

C(CCCCc1nnc(N2CCOCC2)o1)CCCc1nnc(N2CCOCC2)o1
> 100 µM: all assays above
